Experimental data published in patent US9446026B2, “Ocular formulations for drug-delivery to the posterior segment of the eye” (PanOptica, Inc., priority 2013, dated 2016).
Read-outs that look alike come from different tables or passages of the source.

Assays:
[1] = biological target: recombinant FGFR-2 tyrosine kinase (Homo sapiens (Human), UniProt P21802); assay: Inhibition of recombinant FGFR-2 tyrosine kinase using exogenous substrate; format: biochemical
[2] = Ocular fluid and tissue concentrations, 0.4% Compound-I cyclodextrin solutions (Example 7, 24-day study); format: in vivo, Dutch-Belted rabbits; details: Dutch-Belted, rabbit, topical
Method: The ocular solution of Compound-I comprising cyclodextrin was prepared and tested in different groups of animals.

[3] = parameters: species or system Dutch-Belted rabbits and beagle dogs; details: in vivo
Text: Animals that received topical ocular administration of the tromethamine-based suspension were able to tolerate up to higher level of the active agent concentration in the formulation, as compared to equimolar formulations of the sodium phosphate-based Gel Drop.
Overall, the combination of decreased corneal exposure and corresponding improved ocular tolerability, while simultaneously maintaining or promoting drug delivery to the posterior segment target tissues, along with improved physicochemical stability, will provide greater benefit to patients compared to the ophthalmic Gel Drop formulation.
Retinal function was normal in all test article and vehicle treated groups during full-field electroretinograms performed in rabbits.

[4] = Ocular tissue concentrations, 0.3% Compound-I ophthalmic gel drop twice daily (toxicology study); format: in vivo, Dutch-Belted rabbits
[5] = Dutch-Belted (rabbit), beagle (dog), rabbit, dog
[6] = 0.3% Ophthalmic Gel Drop, Twice Daily 29 days
[7] = 0.3% ophthalmic gel drop with and without benzylalkonium chloride, twice daily, Dutch-Belted rabbits

recombinant FGFR-2 tyrosine kinase, sequence (P21802 22-821): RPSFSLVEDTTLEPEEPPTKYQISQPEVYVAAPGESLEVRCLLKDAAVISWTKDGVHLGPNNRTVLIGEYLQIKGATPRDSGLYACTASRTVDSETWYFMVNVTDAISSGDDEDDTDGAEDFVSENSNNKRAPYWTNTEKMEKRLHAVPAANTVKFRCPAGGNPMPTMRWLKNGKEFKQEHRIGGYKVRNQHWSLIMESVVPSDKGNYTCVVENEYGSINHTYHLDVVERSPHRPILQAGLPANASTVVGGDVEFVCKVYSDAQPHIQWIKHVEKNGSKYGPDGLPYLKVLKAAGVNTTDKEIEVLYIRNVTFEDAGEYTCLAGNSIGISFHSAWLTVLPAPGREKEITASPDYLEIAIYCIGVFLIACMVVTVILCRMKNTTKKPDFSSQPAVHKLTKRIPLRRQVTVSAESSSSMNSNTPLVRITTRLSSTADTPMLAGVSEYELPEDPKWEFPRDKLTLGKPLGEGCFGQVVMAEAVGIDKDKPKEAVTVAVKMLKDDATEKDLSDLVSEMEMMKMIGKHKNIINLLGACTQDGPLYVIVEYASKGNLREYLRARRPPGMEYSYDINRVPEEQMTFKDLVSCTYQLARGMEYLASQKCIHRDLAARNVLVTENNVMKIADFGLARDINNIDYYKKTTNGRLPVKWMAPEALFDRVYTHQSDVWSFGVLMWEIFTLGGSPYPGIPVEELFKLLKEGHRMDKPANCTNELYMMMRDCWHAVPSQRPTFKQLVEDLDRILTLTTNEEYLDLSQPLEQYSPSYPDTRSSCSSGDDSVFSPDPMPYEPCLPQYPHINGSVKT

Cl.NC(=O)c1c(OCc2c(F)cc(Br)cc2F)nsc1NC(=O)NCCCCN1CCCC1 [Compound-I, 3-[(4-bromo-2,6-difluorophenyl)methoxy]-5-[[[[4-(1-pyrrolidinyl)butyl]amino]carbonyl]amino]-4-isothiazolecarboxamide hydrochloride]
IC50 [1]: 8.79 nM | IC50, recombinant FGFR-2 tyrosine kinase ([1]; hydrochloride): 5 ng/mL and (5) ng/mL | concentration at 1 h ([2]; aqueous humor, 0.4 % (4 mg/mL), 30 μL/eye, Average concentration of Compound-I, Aqueous Humor, Group 8: 0.4% Compound-I in 8.41% KLEPTOSE HPB, 0.142% phosphate, 30 μL/eye, 2 doses per day): 0.00656 µM | concentration at 1 h ([2]; aqueous humor, 0.4 % (4 mg/mL), 30 μL/eye, Average concentration of Compound-I, Aqueous Humor, Group 9: 0.4% Compound-I in […] KLEPTOSE HPB, 0.142% phosphate, 30 μL/eye, 2 doses per day): 0.00313 µM | concentration at 1 h ([2]; aqueous humor, 0.4 % (4 mg/mL), 30 μL/eye, Average concentration of Compound-I, Aqueous Humor, Group 10: 0.4% Compound-I in 4.88% CAPTISOL, 0.142% phosphate, 30 μL/eye, 2 doses per day): 0.00184 µM | concentration at 1 h ([2]; aqueous humor, 0.4 % (4 mg/mL), 30 μL/eye, Average concentration of Compound-I, Aqueous Humor, Group 11: 0.4% Compound-I in 4.88% CAPTISOL, […] phosphate, 30 μL/eye, 2 doses per day): 0.00403 µM | concentration at 1 h ([2]; aqueous humor, 0.4 %, Aqueous humor concentration of Compound-I (range over groups), 0.4% Compound-I cyclodextrin solutions (KLEPTOSE or CAPTISOL), twice daily): 0.00313 to 0.00656 µM | concentration at 1 h ([2]; central choroid, 0.4 %): 0.259 to 0.769 µM | concentration at 1 h ([2]; central choroid, 0.4 % (4 mg/mL), 0.4% Ophthalmic Solution (CAPTISOL), Twice Daily 24 days, read-out: Central Choroid [Compound I]): 0.212 µM | concentration at 1 h ([2]; central choroid, 0.4 % (4 mg/mL), 0.4% Ophthalmic Solution (KLEPTOSE HP), Twice Daily 24 days, read-out: Central Choroid [Compound I]): 0.259 µM | concentration at 1 h ([2]; central choroid, 0.4 % (4 mg/mL), 0.4% Ophthalmic Solution (KLEPTOSE HPB), Twice Daily 24 days, read-out: Central Choroid [Compound I]): 0.769 µM | concentration at 1 h ([2]; central choroid, 0.4 % (4 mg/mL), 30 μL/eye, Average concentration of Compound-I, Central Choroid, Group 8: 0.4% Compound-I in 8.41% KLEPTOSE HPB, 0.142% phosphate, 30 μL/eye, 2 doses per day): 0.769 µM | concentration at 1 h ([2]; central choroid, 0.4 % (4 mg/mL), 30 μL/eye, Average concentration of Compound-I, Central Choroid, Group 9: 0.4% Compound-I in […] KLEPTOSE HPB, 0.142% phosphate, 30 μL/eye, 2 doses per day): 0.259 µM | concentration at 1 h ([2]; central choroid, 0.4 % (4 mg/mL), 30 μL/eye, Average concentration of Compound-I, Central Choroid, Group 10: 0.4% Compound-I in 4.88% CAPTISOL, 0.142% phosphate, 30 μL/eye, 2 doses per day): 0.212 µM | concentration at 1 h ([2]; central choroid, 0.4 % (4 mg/mL), 30 μL/eye, Average concentration of Compound-I, Central Choroid, Group 11: 0.4% Compound-I in 4.88% CAPTISOL, […] phosphate, 30 μL/eye, 2 doses per day): 0.345 µM | concentration at 1 h ([2]; central retina, 0.4 % (4 mg/mL), 30 μL/eye, Average concentration of Compound-I, Central Retina, Group 8: 0.4% Compound-I in 8.41% KLEPTOSE HPB, 0.142% phosphate, 30 μL/eye, 2 doses per day): 0.124 µM | concentration at 1 h ([2]; central retina, 0.4 % (4 mg/mL), 30 μL/eye, Average concentration of Compound-I, Central Retina, Group 9: 0.4% Compound-I in […] KLEPTOSE HPB, 0.142% phosphate, 30 μL/eye, 2 doses per day): 0.0741 µM | concentration at 1 h ([2]; central retina, 0.4 % (4 mg/mL), 30 μL/eye, Average concentration of Compound-I, Central Retina, Group 10: 0.4% Compound-I in 4.88% CAPTISOL, 0.142% phosphate, 30 μL/eye, 2 doses per day): 0.0531 µM | concentration at 1 h ([2]; central retina, 0.4 % (4 mg/mL), 30 μL/eye, Average concentration of Compound-I, Central Retina, Group 11: 0.4% Compound-I in 4.88% CAPTISOL, […] phosphate, 30 μL/eye, 2 doses per day): 0.101 µM | concentration at 1 h ([2]; central retina, 0.4 %, Central retina concentration of Compound-I (range over groups), 0.4% Compound-I cyclodextrin solutions (KLEPTOSE or CAPTISOL), twice daily): 0.0531 to 0.124 µM | concentration at 1 h ([2]; cornea, 0.4 %): 6.49 to 30 µM | concentration at 1 h ([2]; cornea, 0.4 % (4 mg/mL), 0.4% Ophthalmic Solution (CAPTISOL), Twice Daily 24 days, read-out: Cornea [Compound I]): 6.49 µM | concentration at 1 h ([2]; cornea, 0.4 % (4 mg/mL), 0.4% Ophthalmic Solution (KLEPTOSE HP), Twice Daily 24 days, read-out: Cornea [Compound I]): 8.05 µM | concentration at 1 h ([2]; cornea, 0.4 % (4 mg/mL), 0.4% Ophthalmic Solution (KLEPTOSE HPB), Twice Daily 24 days, read-out: Cornea [Compound I]): 12.3 µM | concentration at 1 h ([2]; cornea, 0.4 % (4 mg/mL), 30 μL/eye, Average concentration of Compound-I, Cornea, Group 8: 0.4% Compound-I in 8.41% KLEPTOSE HPB, 0.142% phosphate, 30 μL/eye, 2 doses per day): 12.3 µM | concentration at 1 h ([2]; cornea, 0.4 % (4 mg/mL), 30 μL/eye, Average concentration of Compound-I, Cornea, Group 9: 0.4% Compound-I in […] KLEPTOSE HPB, 0.142% phosphate, 30 μL/eye, 2 doses per day): 8.05 µM | concentration at 1 h ([2]; cornea, 0.4 % (4 mg/mL), 30 μL/eye, Average concentration of Compound-I, Cornea, Group 10: 0.4% Compound-I in 4.88% CAPTISOL, 0.142% phosphate, 30 μL/eye, 2 doses per day): 6.49 µM | concentration at 1 h ([2]; cornea, 0.4 % (4 mg/mL), 30 μL/eye, Average concentration of Compound-I, Cornea, Group 11: 0.4% Compound-I in 4.88% CAPTISOL, […] phosphate, 30 μL/eye, 2 doses per day): 30 µM | Corneal exposure of ophthalmic solution lower than equimolar ophthalmic gel drops [3, 5]: 5 to 10 fold | Corneal tissue exposure with ophthalmic gel drops [3, 5]: ≥ 100 µM | Alterations of deeper structures of the eye or optic nerve, ophthalmic gel drops [3]: No untoward alterations | Clinical or histopathologic findings with ophthalmic solution [3]: free of untoward clinical or histopathologic findings | Central Choroid [Compound I] [4, 6]: 0.340 µM | Cornea [Compound I] [4, 6]: 236.00 µM | Mean ocular tissue concentration, aqueous humor [4, 7]: 0.0197 to 0.0395 µM | Mean ocular tissue concentration, peripheral choroid [4, 7]: 2.79 to 4.10 µM | Mean ocular tissue concentration, peripheral retina [4, 7]: 0.150 to 0.309 µM
